Experiments:
[1] = from C[C@H](NCc1ccc(Cl)cc1Oc1ccc(-c2cnc(CN3CCCC3)n2C)cc1)C(=O)N1[C@H](C(=O)N[C@@]2(Cc3ccc(Cl)cc3)CCCN(C(=O)[C@@H](CC(=O)O)Cc3cccc[n+]3[O-])C2)COC1(C)C; amide bond; HATU; DCM; 1.72 mM; 48.0 °C; 19.0 h; 2 steps
human PCSK9 = human PCSK9 (Homo sapiens, UniProt Q8NBP7); experiment: PCSK9 ligand binding assay (TR-FRET): interference with binding of human PCSK9 to human LDLR; settings: for IC50: Human PCSK9 Alexa Fluor 647 / Human LDLR extracellular domain-Europium Kryptate; for Max % inhibition: efficacy (Amax), 100% = 1 uM unlabeled human PCSK9, 0% = DMSO
Method in brief: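 Read-out was TR-FRET ratio (665 nm over 615 nm, 330 nm excitation) between Alexa Fluor 647-human PCSK9 (16 nM added) and Europium Kryptate-human LDLR ectodomain (4 nM added). Compound and PCSK9 were mixed 30 min before LDLR, then incubated 2 h. Inhibition was normalised to DMSO and unlabelled-PCSK9 controls, giving IC50 and Amax.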

Sequence of human PCSK9 (Q8NBP7 153-692): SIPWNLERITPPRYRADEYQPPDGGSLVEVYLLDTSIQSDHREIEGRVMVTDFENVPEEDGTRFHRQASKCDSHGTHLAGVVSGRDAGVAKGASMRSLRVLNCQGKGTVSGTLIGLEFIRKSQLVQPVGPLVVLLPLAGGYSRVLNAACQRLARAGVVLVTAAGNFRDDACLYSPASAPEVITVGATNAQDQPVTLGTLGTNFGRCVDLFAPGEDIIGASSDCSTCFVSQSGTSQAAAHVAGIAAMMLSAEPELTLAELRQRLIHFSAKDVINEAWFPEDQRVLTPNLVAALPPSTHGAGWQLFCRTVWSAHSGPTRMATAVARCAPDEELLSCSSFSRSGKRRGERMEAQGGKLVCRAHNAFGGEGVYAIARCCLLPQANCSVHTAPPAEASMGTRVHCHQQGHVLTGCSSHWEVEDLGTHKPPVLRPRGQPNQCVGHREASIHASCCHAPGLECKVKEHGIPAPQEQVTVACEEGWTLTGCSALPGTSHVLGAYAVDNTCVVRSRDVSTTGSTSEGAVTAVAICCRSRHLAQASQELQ
Sequence of human PCSK9 (Q8NBP7 31-152 partner limits assumed): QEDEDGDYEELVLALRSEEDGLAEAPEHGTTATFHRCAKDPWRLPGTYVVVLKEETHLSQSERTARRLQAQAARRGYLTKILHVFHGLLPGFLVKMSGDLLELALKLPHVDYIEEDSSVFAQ

Row | SMILES | IC50 (human PCSK9) | Max % inhibition (human PCSK9) | ring closure, yield of all isomers [1]
1 | C[C@H]1C(=O)N[C@@H](CO)C(=O)N[C@@]2(Cc3ccc(Cl)cc3)CCCN(C2)C(=O)[C@H](Cc2cccc[n+]2[O-])CC(=O)N1Cc1ccc(Cl)cc1Oc1ccc(-c2cnc(CN3CCCC3)n2C)cc1 |  |  | 33.3%
2 | COC[C@@H]1NC(=O)[C@H](C)N(Cc2c(F)cc(Cl)cc2Oc2ccc(-c3cnc(CNC4CCC4)n3C)cc2)C(=O)C[C@@H](CC(F)(F)F)C(=O)N2CCC[C@@](Cc3ccc(Cl)cc3)(C2)NC1=O [Compound 45, (3S,7S,10S,13R)-6-(4-Chloro-2-(4-(2-((cyclobutylamino)methyl)-1-methyl-1H-imidazol-5-yl)phenoxy)-6-fluorobenzyl)-13-(4-chlorobenzyl)-10-(methoxymethyl)-7-methyl-3-(2,2,2-trifluoroethyl)-1,6,9,12-tetraazabicyclo[11.3.1]heptadecane-2,5,8,11-tetraone] | 0.816 nM | 103.7% | 
3 | CC(C)[C@@H]1NC(=O)N(Cc2ccc(Cl)cc2Oc2ccc(-c3cnc(CN(C)C)n3C)cc2)[C@@H](C)C(=O)N[C@@H](CO)C(=O)N[C@@]2(Cc3ccc(Cl)cc3)CCCN(C2)C1=O.Cl [Compound 67, (3S, 7S, 10S, 13R)-6-(4-chloro-2-(4-(2-((dimethylamino)methyl)-1-methyl-1H-imidazol-5-yl)phenoxy)benzyl)-13-(4-chlorobenzyl)-10-(hydroxymethyl)-3-isopropyl-7-methyl-1,4,6,9,12-pentaazabicyclo[11.3.1]heptadecane-2,5,8,11-tetraone] | 0.334 nM | 104.2% | 
4 | C[C@H]1C(=O)N[C@@H](CO)C(=O)N[C@@]2(Cc3ccc(Cl)cc3)CCCN(C2)C(=O)[C@H](CC2CC2)CC(=O)N1Cc1c(F)cc(Cl)cc1Oc1ccc(-c2cnc(CN3CCCC3)n2C)cc1 [Compound 10, (3R, 7S, 10S, 13R)-6-(4-chloro-2-fluoro-6-(4-(1-methyl-2-(pyrrolidin-1-ylmethyl)-1H-imidazol-5-yl)phenoxy)benzyl)-13-(4-chlorobenzyl)-3-(cyclopropylmethyl)-10-(hydroxymethyl)-7-methyl-1,6,9,12-tetraazabicyclo[11.3.1]heptadecane-2,5,8,11-tetraone] | 0.152 nM | 115.5% | 
5 | COC[C@@H]1NC(=O)[C@H](C)N(Cc2ncc(Cl)cc2Oc2ccc(-c3cnc(CN(C)C)n3C)cc2)C(=O)C[C@@H](Cc2ccccc2)C(=O)N2CCC[C@@](Cc3ccc(Cl)cc3)(C2)NC1=O [Compound 17, (3R, 7S, 10S, 13R)-3-benzyl-6-((5-chloro-3-(4-(2-((dimethylamino)methyl)-1-methyl-1H-imidazol-5-yl)phenoxy)pyridin-2-yl)methyl)-13-(4-chlorobenzyl)-10-(methoxymethyl)-7-methyl-1,6,9,12-tetraazabicyclo[11.3.1]heptadecane-2,5,8,11-tetraone] | 0.327 nM | 102.6% | 
6 | C[C@H]1C(=O)N[C@@H](CO)C(=O)N[C@@]2(Cc3ccc(Cl)cc3)CCCN(C2)C(=O)[C@H](CC(F)(F)F)CC(=O)N1Cc1c(F)cc(Cl)cc1Oc1ccc(-c2cnc(CN3CCCC3)n2C)cc1 [Compound 15, (3S, 7S, 10S, 13R)-6-(4-chloro-2-fluoro-6-(4-(1-methyl-2-(pyrrolidin-1-ylmethyl)-1H-imidazol-5-yl)phenoxy)benzyl)-13-(4-chlorobenzyl)-10-(hydroxymethyl)-7-methyl-3-(2,2,2-trifluoroethyl)-1,6,9,12-tetraazabicyclo[11.3.1]heptadecane-2,5,8,11-tetraone] | 0.342 nM | 119.0% | 
7 | C[C@H]1C(=O)N[C@@H](CO)C(=O)N[C@@]2(Cc3ccc(Cl)cc3)CCCN(C2)C(=O)[C@H]([C@@H]2CCc3ccccc32)CC(=O)N1Cc1ccccc1Oc1ccc(-c2cnc(CN(C)C)n2C)cc1 [Compound 55, (3S,7S,10S,13R)-13-(4-chlorobenzyl)-3-((S)-2,3-dihydro-1H-inden-1-yl)-6-(2-(4-(2-((dimethylamino)methyl)-1-methyl-1H-imidazol-5-yl)phenoxy)benzyl)-10-(hydroxymethyl)-7-methyl-1,6,9,12-tetraazabicyclo[11.3.1]heptadecane-2,5,8,11-tetraone] | 0.742 nM | 96.0% | 
8 | CC[C@@H]1CC(=O)N(Cc2c(F)cc(Cl)cc2Oc2ccc(-c3cnc(CN(C)C)n3C)cc2)[C@@H](C)C(=O)N[C@@H](COC)C(=O)N[C@@]2(Cc3ccc(Cl)cc3)CCCN(C2)C1=O [Compound 63] | 0.851 nM | 117.9% | 
9 | C[C@H]1C(=O)N[C@@H](CO)C(=O)N[C@@]2(Cc3ccc(Cl)cc3)CCCN(C2)C(=O)[C@H](CC(F)(F)F)CC(=O)N1Cc1c(F)cc(Cl)cc1Oc1ccc(-c2cnc(CN3CCC3)n2C)cc1 [Compound 28, (3S, 7S, 10S, 13R)-6-(2-(4-(2-(azetidin-1-ylmethyl)-1-methyl-1H-imidazol-5-yl)phenoxy)-4-chloro-6-fluorobenzyl)-13-(4-chlorobenzyl)-10-(hydroxymethyl)-7-methyl-3-(2,2,2-trifluoroethyl)-1,6,9,12-tetraazabicyclo[11.3.1]heptadecane-2,5,8,11-tetraone] | 0.612 nM | 114.2% | 
10 | C[C@H]1C(=O)N[C@@H](CO)C(=O)N[C@@]2(Cc3ccc(Cl)cc3)CCCN(C2)C(=O)[C@H](Cc2ccccc2)CC(=O)N1Cc1cc(F)c(Cl)cc1Oc1ccc(-c2cnc(CN(C)C)n2C)cc1 [Compound 54, (3R, 7S, 10S, 13R)-3-benzyl-6-(4-chloro-2-(4-(2-((dimethylamino)methyl)-1-methyl-1H-imidazol-5-yl)phenoxy)-5-fluorobenzyl)-13-(4-chlorobenzyl)-10-(hydroxymethyl)-7-methyl-1,6,9,12-tetraazabicyclo[11.3.1]heptadecane-2,5,8,11-tetraone] | 0.624 nM | 109.4% | 

Second part, led by results:

Row | IC50 (human PCSK9) | Max % inhibition (human PCSK9) | SMILES | ring closure, yield of all isomers [1]
11 | 3.29 nM | 103.4% | CCN(Cc1ncc(-c2ccc(Oc3cc(Cl)cc(F)c3CN3C(=O)C[C@@H](CC(F)(F)F)C(=O)N4CCC[C@@](Cc5ccc(Cl)cc5)(C4)NC(=O)[C@H](CO)NC(=O)[C@@H]3C)cc2)n1C)C1(C)CC1 [Compound 152, (3S, 7S, 10S, 13R)-6-(4-chloro-2-(4-(2-((ethyl(1-methylcyclopropyl)amino)methyl)-1-methyl-1H-imidazol-5-yl)phenoxy)-6-fluorobenzyl)-13-(4-chlorobenzyl)-10-(hydroxymethyl)-7-methyl-3-(2,2,2-trifluoroethyl)-1,6,9,12-tetraazabicyclo[11.3.1]heptadecane-2,5,8,11-tetraone] | 
12 | 1.71 nM | 99.2% | C[C@H]1C(=O)N[C@@H](CO)C(=O)N[C@@]2(Cc3ccc(Cl)cc3)CCCN(C2)C(=O)[C@H]([C@@H]2CCc3ccccc32)CC(=O)N1Cc1ccc(C(F)(F)F)cc1Oc1ccc(-c2cnc(CN(C)C)n2C)cc1 [Compound 90] | 
13 | 1.88 nM | 102.5% | COC[C@@H]1NC(=O)[C@H](C)N(Cc2ccc(Cl)cc2Oc2ccc(-c3cnc(CN(C)C)n3C)cc2)C(=O)C[C@@H]([C@@H]2CCc3ccccc32)C(=O)N2CCC[C@@](Cc3ccc(Cl)cc3)(C2)NC1=O.Cl [Compound 95, (3S, 7S, 10S, 13R)-6-(4-chloro-2-(4-(2-((dimethylamino)methyl)-1-methyl-1H-imidazol-5-yl)phenoxy)benzyl)-13-(4-chlorobenzyl)-3-((S)-2,3-dihydro-1H-inden-1-yl)-10-(methoxymethyl)-7-methyl-1,6,9,12-tetraazabicyclo[11.3.1]heptadecane-2,5,8,11-tetraone] | 
14 | 0.754 nM | 102.6% | C[C@H]1C(=O)N[C@@H](CO)C(=O)N(C)[C@@]2(Cc3ccc(Cl)cc3)CCCN(C2)C(=O)[C@H](Cc2ccccc2)CC(=O)N1Cc1ccc(Cl)cc1Oc1ccc(-c2cnc(CN(C)C)n2C)nc1 [Compound 71] | 
15 | 1.48 nM | 110.7% | C[C@H](c1ncc(-c2ccc(Oc3cc(Cl)ccc3CN3C(=O)C[C@@H]([C@@H]4CCc5ccccc54)C(=O)N4CCC[C@@](Cc5ccc(Cl)cc5)(C4)NC(=O)[C@H](CO)NC(=O)[C@@H]3C)cc2)n1C)N(C)C.Cl [Compound 70, (3S, 7S,10S, 13R)-6-(4-chloro-2-(4-(2-((R)-1-(dimethylamino)ethyl)-1-methyl-1H-imidazol-5-yl)phenoxy)benzyl)-13-(4-chlorobenzyl)-3-((S)-2,3-dihydro-1H-inden-1-yl)-10-(hydroxymethyl)-7-methyl-1,6,9,12-tetraazabicyclo[11.3.1]heptadecane-2,5,8,11-tetraone] | 
16 | 2.86 nM | 116.6% | C[C@@H]1CC(=O)N(Cc2c(F)cc(Cl)cc2Oc2ccc(-c3cnc(CN(C)C)n3C)cc2)[C@@H](C)C(=O)N[C@@H](CO)C(=O)N(C)[C@@]2(Cc3ccc(Cl)cc3)CCCN(C2)C1=O [Compound 99, (3R, 7S, 10S, 13R)-6-(4-chloro-2-(4-(2-((dimethylamino)methyl)-1-methyl-1H-imidazol-5-yl)phenoxy)-6-fluorobenzyl)-13-(4-chlorobenzyl)-10-(hydroxymethyl)-3,7,12-trimethyl-1,6,9,12-tetraazabicyclo+11.3.1+heptadecane-2,5,8,11-tetraone] | 
17 | 1.45 nM | 109.6% | COC[C@@H]1NC(=O)[C@H](C)N(Cc2c(F)cc(Cl)cc2Oc2ccc(-c3cnc(CN(C)C)n3C)cc2)C(=O)C[C@@H](C2CCC2)C(=O)N2CCC[C@@](Cc3ccc(Cl)cc3)(C2)N(C)C1=O [Compound 140, (3S, 7S, 10S, 13R)-6-(4-chloro-2-(4-(2-((dimethylamino)methyl)-1-methyl-1H-imidazol-5-yl)phenoxy)-6-fluorobenzyl)-13-(4-chlorobenzyl)-3-cyclobutyl-10-(methoxymethyl)-7,12-dimethyl-1,6,9,12-tetraazabicyclo[11.3.1]heptadecane-2,5,8,11-tetraone] | 
